Laboratory results: BigSolDB 2.1

Conditions: in acetic acid

CO[C@H]1/C=C/O[C@@]2(C)Oc3c(C)c(O)c4c(O)c(c(/C=N/N5CCN(C6CCCC6)CC5)c(O)c4c3C2=O)NC(=O)/C(C)=C\C=C\[C@H](C)[C@H](O)[C@@H](C)[C@@H](O)[C@@H](C)[C@H](OC(C)=O)[C@@H]1C
Conditions	solubility (mole fraction)
278.15 K	0.0523
283.15 K	0.0558
288.15 K	0.0595
293.15 K	0.0632
297.15 K	0.067
303.15 K	0.0707
308.15 K	0.0755
313.15 K	0.0805
318.15 K	0.0858
323.15 K	0.0913
